Results: patent US20070287719A1, “Salts, Prodrugs and Formulations of 1-[5-(4-Amino-7-Isopropyl-7H-Pyrrolo[2,3-D]Pyrimidine-5-Carbonyl)-2-Methoxy-Phenyl]-3-(2,4-Dichloro-Phenyl)-Urea” (Pfizer Inc, priority 2005, published 2007)
Values belong to the molecule of their own block, whether it stands above or below them.

Experiments:
[1] = target: T1, fully activated recombinant GST-TIE2 construct (Homo sapiens, UniProt Q02763); assay: Tie-2 tyrosine kinase inhibition, GST-Tie-2 fusion protein, PGT plate ELISA; format: biochemical
T1 construct: made in house; host or cells: insect cells (baculovirus)
T1 sequence (Q02763 23-1124): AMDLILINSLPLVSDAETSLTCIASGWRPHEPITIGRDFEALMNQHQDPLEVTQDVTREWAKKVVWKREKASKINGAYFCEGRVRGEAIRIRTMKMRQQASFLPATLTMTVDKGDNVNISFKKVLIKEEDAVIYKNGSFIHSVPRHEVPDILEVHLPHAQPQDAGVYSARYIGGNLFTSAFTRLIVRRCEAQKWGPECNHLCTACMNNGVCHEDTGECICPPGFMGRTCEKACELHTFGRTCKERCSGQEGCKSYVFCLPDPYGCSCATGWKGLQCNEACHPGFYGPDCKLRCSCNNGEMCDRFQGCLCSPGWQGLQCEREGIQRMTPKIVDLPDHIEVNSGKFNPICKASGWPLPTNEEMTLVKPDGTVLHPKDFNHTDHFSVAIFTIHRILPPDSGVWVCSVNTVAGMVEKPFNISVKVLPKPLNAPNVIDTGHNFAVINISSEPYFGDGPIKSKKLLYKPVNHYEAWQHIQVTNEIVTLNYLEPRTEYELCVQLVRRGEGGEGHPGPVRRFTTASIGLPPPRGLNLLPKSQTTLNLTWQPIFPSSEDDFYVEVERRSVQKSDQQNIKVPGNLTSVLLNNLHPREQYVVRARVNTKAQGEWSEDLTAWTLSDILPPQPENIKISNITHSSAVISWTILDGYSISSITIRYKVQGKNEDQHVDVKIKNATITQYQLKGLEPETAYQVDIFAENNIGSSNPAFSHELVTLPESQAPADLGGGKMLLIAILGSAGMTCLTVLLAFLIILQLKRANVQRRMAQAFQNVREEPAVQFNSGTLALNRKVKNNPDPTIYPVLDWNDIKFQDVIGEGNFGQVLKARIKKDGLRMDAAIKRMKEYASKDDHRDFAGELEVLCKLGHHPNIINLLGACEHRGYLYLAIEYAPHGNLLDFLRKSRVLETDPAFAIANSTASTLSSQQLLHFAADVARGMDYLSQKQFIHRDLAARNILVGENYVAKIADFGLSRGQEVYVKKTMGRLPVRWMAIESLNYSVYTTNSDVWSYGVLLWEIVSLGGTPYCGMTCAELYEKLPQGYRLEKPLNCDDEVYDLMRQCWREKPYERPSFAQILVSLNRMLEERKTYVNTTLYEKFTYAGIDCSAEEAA
Experimental: (§1) The crystalline and non-crystalline forms and formulations of 1-[5-(4-Amino-7-isopropyl-7H-pyrrolo[2,3-d[pyrimidine-5-carbonyl)-2-methoxy-phenyl]-3-(2 4-dichloro-phenyl)-urea are selective inhibitors of the tyrosine kinases, Tie-2, TrkA and related family member TrkB. The potentcy of these forms and formulations of the present invention at the tyrosine kinases may be determined using the following assays.
Inhibition of Tie-2 tyrosine kinase activity is measured in 96-well Maxisorp plates (Nunc) coated with poly-Glu-Tyr (PGT 4:1 Sigma) by the addition of 100 μL/well of a 25 μg/mL solution of PGT in PBS. Plates are incubated at 37° C. overnight, and transferred to 4° C. until use. Prior to compound testing, appropriate dilutions of compounds are made in 96-well polypropylene plates. […] GST-Tie-2 would be previously isolated from insect cells infected with GST-Tie-2 baculoviruses, and used at concentrations determined to provide OD450 signals of approximately 1.0 in the presence of ATP and the absence of chemical inhibitors. […] The bound HRP-PY20 antibody can be detected by the addition of 70 μL/well TMB microwell substrate (KPL), and color development terminated by the addition of an equal volume of 0.9 M H2SO4. The background signal from wells lacking ATP can be subtracted from all ATP-stimulated wells, and IC50 values calculated.

[2] = target: T2, recombinant human erbB-TIE2 chimeric receptor overexpressed in C6 rat glioma cells (Homo sapiens, UniProt Q02763); assay: Cell-based TIE-2 kinase activity of chimeric receptor
T2 construct: erbB extracellular domain with TIE2 intracellular domain; extracellular domain of human EGFR (erbB); expressed in transfected cells; host or cells: C6 rat glioma cells
T2 sequence (Q02763 770-1124 limits assumed, change not shown): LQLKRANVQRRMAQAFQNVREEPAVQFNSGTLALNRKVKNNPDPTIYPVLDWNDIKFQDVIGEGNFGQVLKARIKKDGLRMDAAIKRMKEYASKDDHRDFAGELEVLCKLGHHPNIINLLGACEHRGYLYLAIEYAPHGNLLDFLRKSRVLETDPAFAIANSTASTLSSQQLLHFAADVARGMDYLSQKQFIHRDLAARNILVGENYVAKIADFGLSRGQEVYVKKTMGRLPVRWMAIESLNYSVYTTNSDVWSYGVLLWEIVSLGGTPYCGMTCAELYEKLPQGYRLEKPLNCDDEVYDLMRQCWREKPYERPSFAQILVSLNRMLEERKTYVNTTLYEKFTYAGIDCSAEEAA

[3] = In vitro dissolution test in Model Fasted Duodenal (MFD) solution; format: physicochemical; conditions: 1.8 mL MFD; 0.36 mg free base active agent or 1.44 mg active agent in spray dry dispersion
Experimental: The compositions comprising the active agent and concentration-enhancing polymer provide enhanced concentration of the dissolved inhibitor in in vitro dissolution tests. It has been determined that enhanced drug concentration in in vitro dissolution tests in Model Fasted Duodenal (MFD) solution or Phosphate Buffered Saline (PBS) is a good indicator of in vivo performance and bioavailability. An appropriate PBS solution is an aqueous solution comprising 20 mM sodium phosphate (Na2HPO4), 47 mM potassium phosphate (KH2PO4), 87 mM sodium chloride (NaCl), and 0.2 mM potassium chloride (KCl), adjusted to pH 6.5 with sodium hydroxide (NaOH). An appropriate MFD solution is the same PBS solution wherein additionally is present 7.3 mM sodium taurocholic acid and 1.4 mM of 1-palmitoyl-2-oleyl-sn-glycero-3-phosphocholine. In particular, a composition of the present invention can be dissolution-tested by adding it to MFD or PBS solution and agitating to promote dissolution. […]
The concentration of dissolved inhibitor is typically measured as a function of time by sampling the test medium and plotting inhibitor concentration in the test medium vs. time so that the MDC can be ascertained. The MDC is taken to be the maximum value of dissolved inhibitor measured over the duration of the test. […]

[4] = Plasma pharmacokinetics after oral dosing, rat; format: in vivo; conditions: Rat (n = 4), 100 mg Active Agent/kg
Experimental: (§2) Alternatively, the compositions of the present invention, when dosed orally to a human or other mammal, provide an AUC inhibitor concentration in the blood (herein referred to as a plasma AUC) that is at least about 4 fold that observed when a control composition comprising all equivalent quantity of undispersed drug is dosed. It is noted that such compositions can also be said to have a relative bioavailability of about 4. Preferably, the compositions of the present invention, when dosed orally to a human or other mammal, provide an AUC inhibitor concentration in the blood that is at least about 6 fold, more preferably at least about 10 fold, and even more preferably at least about 20 fold that observed when a control composition comprising an equivalent quantity of undispersed drug is dosed. […] An exemplary dosing vehicle would be a suspension solution of water containing 0.5 wt percent […] (such as METHOCEL) and 0.16 wt percent of the surfactant polyoxyethylene 20 sorbitan monooleate (such as TWEEN 80). Thus, the compositions of the present invention can be evaluated in either in vitro or in vivo tests, or both. […]
(§3) Relative bioavailability of inhibitor in the dispersions of the present invention can be tested in vivo in animals or humans using conventional methods for making such a determination. […] In an in vivo crossover study a “test composition” of inhibitor and polymer is dosed to half a group of test subjects and, after an appropriate washout period (e.g., one week) the same subjects are dosed with a “control composition” that comprises an equivalent quantity of inhibitor as the “test composition” (but with no polymer present). […] The relative bioavailability is measured as the concentration in the blood (serum or plasma) versus time area under the curve (AUC) determined for the test group divided by the AUC in the blood provided by the control composition. Preferably, this test/control ratio is determined for each subject, and then the ratios are averaged over all subjects in the study. […]

[5] = target: inactive (unphosphorylated) TIE2 kinase (Homo sapiens, UniProt Q02763); assay: Inhibition of inactive TIE2 kinase; format: biochemical
Sequence of inactive (unphosphorylated) TIE2 kinase (Q02763 23-1124): as the sequence (Q02763 23-1124) above
Description: as §1

[6] = Plasma pharmacokinetics after oral dosing, dog; format: in vivo; conditions: Dog (n = 3), 30 mg Active Agent/kg
Experimental: as §2, §3

[7] = Hygroscopicity of salt forms; format: physicochemical; conditions: at 90 percent relative humidity at ambient temperature

- IC50 [1]: 0.28 µM
- IC50 [2]: 0.00467 µM
- AUC (aqueous concentration versus time) [3]: 100 µg·min/mL
- MDC (Maximum Drug Concentration) [3]: 3 µg/mL
- Cmax [4]: 191 ± 153 ng/mL
- Tmax [4]: 4.5 ± 1 h
- AUC(0-t) ([4]; read-out: AUC0-24): 1300 ± 940 ng·h/mL
- Ki [5]: 0.023 µM
- Cmax [6]: 347 ± 556 ng/mL
- Tmax [6]: 4 ± 2 h
- AUC(0-t) ([6]; read-out: AUC0-24): 2810 ± 4550 ng·h/mL
SMILES: COc1ccc(C(=O)c2cn(C(C)C)c3ncnc(N)c23)cc1NC(=O)Nc1ccc(Cl)cc1Cl [1-[5-(4-amino-7-isopropyl-7H-pyrrolo[2,3-d]pyrimidine-5-carbonyl)-2-methoxy-phenyl]-3-(2,4-dichloro-phenyl)-urea]

- Hygroscopicity [7]: 7.9 percent (by weight)
SMILES: COc1ccc(C(=O)c2cn(C(C)C)c3ncnc(N)c23)cc1NC(=O)Nc1ccc(Cl)cc1Cl.CS(=O)(=O)O [Example 2, 1-[5-(4-Amino-7-isopropyl-7H-pyrrolo[2,3-d]pyrimidine-5-carbonyl)-2-methoxy-phenyl]-3-(2,4-dichloro-phenyl)-urea•Mesylate (Form B)]

- Hygroscopicity [7]: 1.6 percent (by weight)
SMILES: COc1ccc(C(=O)c2cn(C(C)C)c3ncnc(N)c23)cc1NC(=O)Nc1ccc(Cl)cc1Cl.CS(=O)(=O)O [Example 3, 1-[5-(4-Amino-7-isopropyl-7H-pyrrolo[2,3-d]pyrimidine-5-carbonyl)-2-methoxy-phenyl]-3-(2,4-dichloro-phenyl)-urea•Mesylate (Polymorph A)]

The next lines start with the molecule.

SMILES: COc1ccc(C(=O)c2cn(C(C)C)c3ncnc(N)c23)cc1NC(=O)Nc1ccc(Cl)cc1Cl.O=P(O)(O)O [Example 1, 1-[5-(4-Amino-7-isopropyl-7H-pyrrolo[2,3-d]pyrimidine-5-carbonyl)-2-methoxy-phenyl]-3-(2,4-dichloro-phenyl)-urea•Phosphate]
- Hygroscopicity [7]: 0.8 percent (by weight)

SMILES: COc1ccc(C(=O)c2cn(C(C)C)c3ncnc(N)c23)cc1NC(=O)Nc1ccc(Cl)cc1Cl.O=S(=O)(O)c1ccccc1 [Example 8, 1-[5-(4-Amino-7-isopropyl-7H-pyrrolo[2,3-d]pyrimidine-5-carbonyl)-2-methoxy-phenyl]-3-(2,4-dichloro-phenyl)-urea•Besylate]
- Hygroscopicity [7]: 2.0 percent (by weight)

SMILES: COc1ccc(C(=O)c2cn(C(C)C)c3ncnc(N)c23)cc1NC(=O)Nc1ccc(Cl)cc1Cl.Cc1ccc(S(=O)(=O)O)cc1 [Example 9, 1-[5-(4-Amino-7-isopropyl-7H-pyrrolo[2,3-d]pyrimidine-5-carbonyl)-2-methoxy-phenyl]-3-(2,4-dichloro-phenyl)-urea•Tosylate]
- Hygroscopicity [7]: 1.1 percent (by weight)
